In patent publication US9439422B2, “Use of macrocyclic picolinamides as fungicides” (DOW AGROSCIENCES LLC, priority 2013, dated 2016):
Where two headings read alike, the source gives them in different places.

Assays:
[1] = system: Mycosphaerella graminicola; Anamorph: Septoria tritici; experiment: Leaf Blotch of Wheat (SEPTTR) disease control on wheat seedlings; type: in vivo; settings: Zymoseptoria tritici; for pest or weed control at 100 ppm: rate 100 ppm; for pest or weed control at 121.5 g/ha: rate 121.5 g/H
Description: Evaluation of Fungicidal Activity: Leaf Blotch of Wheat (Mycosphaerella graminicola; Anamorph: Septoria tritici; Bayer Code […]) Technical grades of materials were dissolved in acetone, which were then mixed with nine volumes of water containing 110 ppm Triton X-100. The fungicide solutions were applied onto wheat seedlings using an automated booth sprayer to run-off. All sprayed plants were allowed to air dry prior to further handling. All fungicides were evaluated using the aforementioned method for their activity vs. all target diseases. Wheat leaf blotch and brown rust activity were also evaluated using track spray applications, in which case the fungicides were formulated as EC formulations, containing 0.1% Trycol 5941 in the spray solutions. Wheat plants (variety Yuma) were grown from seed in a greenhouse in 50% mineral soil/50% soil-less Metro mix until the first leaf was fully emerged, with 7-10 seedlings per pot. These plants were inoculated with an aqueous spore suspension of Septoria tritici either prior to or after fungicide treatments. After inoculation the plants were kept in 100% relative humidity (one day in a dark dew chamber followed by two to three days in a lighted dew chamber at 20° C.) to permit spores to germinate and infect the leaf. The plants were then transferred to a greenhouse set at 20° C. for disease to develop. When disease symptoms were fully expressed on the 1st leaves of untreated plants, infection levels were assessed on a scale of 0 to 100 percent disease severity. Percent disease control was calculated using the ratio of disease severity on treated plants relative to untreated plants.

[2] = system: Puccinia triticina; Synonym: Puccinia recondite f. sp. tritici; experiment: Wheat Brown Rust (PUCCRT) disease control on wheat seedlings; type: in vivo; settings: for pest or weed control at 100 ppm: rate 100 ppm; for pest or weed control at 121.5 g/ha: rate 121.5 g/H
Description: Technical grades of materials were dissolved in acetone, which were then mixed with nine volumes of water containing 110 ppm Triton X-100. The fungicide solutions were applied onto wheat seedlings using an automated booth sprayer to run-off. All sprayed plants were allowed to air dry prior to further handling. All fungicides were evaluated using the aforementioned method for their activity vs. all target diseases. Wheat leaf blotch and brown rust activity were also evaluated using track spray applications, in which case the fungicides were formulated as EC formulations, containing 0.1% Trycol 5941 in the spray solutions. Wheat plants (variety Yuma) were grown from seed in a greenhouse in 50% mineral soil/50% soil-less Metro mix until the first leaf was fully emerged, with 7-10 seedlings per pot. These plants were inoculated with an aqueous spore suspension of Septoria tritici either prior to or after fungicide treatments. After inoculation the plants were kept in 100% relative humidity (one day in a dark dew chamber followed by two to three days in a lighted dew chamber at 20° C.) to permit spores to germinate and infect the leaf. The plants were then transferred to a greenhouse set at 20° C. for disease to develop. When disease symptoms were fully expressed on the 1st leaves of untreated plants, infection levels were assessed on a scale of 0 to 100 percent disease severity. Percent disease control was calculated using the ratio of disease severity on treated plants relative to untreated plants. Evaluation of Fungicidal Activity: Wheat Brown Rust (Puccinia triticina; Synonym: Puccinia recondite f. sp. tritici; Bayer Code PUCCRT) Wheat plants (variety Yuma) were grown from seed in a greenhouse in 50% mineral soil/50% soil-less Metro mix until the first leaf was fully emerged, with 7-10 seedlings per pot. These plants were inoculated with an aqueous spore suspension of Puccinia triticina either prior to or after fungicide treatments. After inoculation the plants were kept in a dark dew room at 22° C. with 100% relative humidity overnight to permit spores to germinate and infect the leaf. The plants were then transferred to a greenhouse set at 24° C. for disease to develop. Fungicide formulation, application and disease assessment followed the procedures as described in the Example A.

[3] = 24 h, 1 Day Protectant, read-out: SEPTTR disease control, 1DP
[4] = 72 h, 3 Day Curative, read-out: SEPTTR disease control, 3DC
[5] = 24 h, 1 Day Protectant, read-out: PUCCRT disease control, 1DP
[6] = 72 h, 3 Day Curative, read-out: PUCCRT disease control, 3DC

SMILES	pest or weed control at 100 ppm [1, 3]	pest or weed control at 100 ppm [1, 4]	pest or weed control at 100 ppm [2, 5]	pest or weed control at 121.5 g/ha [1, 3]	pest or weed control at 121.5 g/ha [1, 4]	pest or weed control at 121.5 g/ha [2, 5]	pest or weed control at 100 ppm [2, 6]	pest or weed control at 121.5 g/ha [2, 6]
COc1ccnc(C(=O)N[C@H]2COC[C@H](Cc3ccc(C(F)(F)F)cc3)[C@@H](OC(=O)C(C)C)[C@H](C)OC2=O)c1O [Compound F30]	80 to 100%	0 to 80%	80 to 100%					
CCOCC(=O)OCOc1c(OC)ccnc1C(=O)N[C@H]1COC[C@H](CC2CCCC2)[C@@H](OCC(C)C)[C@H](C)OC1=O [Compound F121]	80 to 100%	80 to 100%	80 to 100%	80 to 100%	80 to 100%	80 to 100%	80 to 100%	80 to 100%
